Results taken from patent US8889881B2, “Compound having skin-whitening, anti-oxidizing and PPAR activities and medical use therefor” (Pusan National University Industry —University Cooperation …, priority 2011, dated 2014).

Legend:
[1] = system: YPEN-1 cells (rat prostatic endothelial cell line); experiment: In vitro ROS scavenging activity assay (DCFDA); assay type: cell-based; conditions: cells pre-treated with 50 μM SIN-1 for 1 hour; DCFDA fluorescence; positive control trolox; FIGS. 1 and 2
Protocol: YPEN-1 cells (rat prostatic endothelial cell line) was obtained from American type culture collection (ATCC, Manassas, Va., USA), and the cells were cultured by using a dulbecco's modified eagle medium (DMEM, Nissui, Tokyo, Japan) containing 2 mM L-glutamine, […], 2.5 mg/L amphotericin B, and 5% inactivated fetal bovine serum (FBS). Also, the cells were maintained at a temperature of 37° C. in a humid atmosphere-like condition containing 5% CO2 and 95% air. […] The cells were sub-cultured in 100 mm plastic flask (Corning Co., New York, USA) every two days to maintain the cell line.
2′,7′-dichlorodihydrofluorescein diacetate (DCFDA) assay method according to a conventionally known method (Chem Res Toxicol. 5: 227-231, 1992) was used. In detail, 12.5 mM DCFDA dissolved in 99.9% ethanol and 600 U/ml esterase dissolved in tertiary distilled water were stored as a stock solution at a temperature of −20° C., and a 2′,7′-dichlorodihydrofluorescein (DCFH) solution prepared by mixing 10 mM DCFDA and 6 U/ml esterase was cultured at a temperature of 22° C. for 20 minutes, and then, refrigerated in a dark place before use. […] Vascular endothelial cells that were pre-treated with 50 μM 3-morpholinosydnonimine hydrochloride (SIN-1) for 1 hour were used as a reactive oxygen generation source.

[2] = system: Mushroom-derived tyrosinase; experiment: Tyrosinase inhibitory effect; assay type: biochemical; conditions: 1 mM L-tyrosin, pH 6.5, 25° C., 30 minutes, OD492; positive control kojic acid; FIGS. 3 and 4
Protocol: Mushroom-derived tyrosinase was sued as an enzyme source in the present experiment. Tyrosinase activities were assayed according to a slightly-modified conventionally known method (Life Sci., 1999, 65, 241-246). In detail, 20 μl of a mushroom-derived tyrosinase (1000 units) aqueous solution was added to 96-well microplate (Nunc, Denmark) to prepare 200 μl of the total volume of assay mixture containing 1 mM L-tyrosin solution and 50 mM phosphate buffer solution (pH 6.5). The assay mixture was cultured at a temperature of 25° C. for 30 minutes.

[3] = molecular target: T1, PPAR gamma-LBD (Homo sapiens, UniProt P37231); experiment: PPAR assay, PPARγ; assay type: binding; conditions: sample final concentration 100 μM; positive control rosiglitazone; FIGS. 7 and 8
T1 sequence (P37231 238-503 limits assumed): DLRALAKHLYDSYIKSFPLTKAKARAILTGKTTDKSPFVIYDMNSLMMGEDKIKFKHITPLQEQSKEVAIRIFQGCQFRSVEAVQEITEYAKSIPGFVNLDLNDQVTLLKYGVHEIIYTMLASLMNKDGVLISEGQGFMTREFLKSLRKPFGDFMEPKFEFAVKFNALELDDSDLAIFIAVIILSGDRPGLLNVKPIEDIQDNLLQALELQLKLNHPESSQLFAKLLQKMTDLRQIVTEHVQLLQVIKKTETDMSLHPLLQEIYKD

[4] = molecular target: T2, PPAR alpha-LBD (Homo sapiens, UniProt Q07869); experiment: PPAR assay, PPARα; conditions: for PPARα activation (competitive activation rate), compared with fenofibrate: sample final concentration 100 μM, positive control fenofibrate, FIGS. 5 and 6; for simultaneous activation of PPARα and PPARγ: summary of the PPARα and PPARγ assays, sample 100 μM
T2 sequence (Q07869 239-466 limits assumed): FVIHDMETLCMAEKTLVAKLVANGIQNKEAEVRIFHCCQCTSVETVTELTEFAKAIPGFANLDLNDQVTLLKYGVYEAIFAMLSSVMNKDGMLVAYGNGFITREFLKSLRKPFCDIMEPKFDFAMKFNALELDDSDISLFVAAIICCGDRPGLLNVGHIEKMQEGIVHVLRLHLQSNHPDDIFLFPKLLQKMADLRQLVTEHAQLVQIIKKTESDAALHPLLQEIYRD

| Compound | melting point [°C] | scavenging effects on ROS generated by vascular endothelial cells, compared with trolox [1] | tyrosinase inhibitory activities, compared with kojic acid [2] | PPARγ activation (competitive activation rate), compared with rosiglitazone [3] | PPARα activation (competitive activation rate), compared with fenofibrate [4] | simultaneous activation of PPARα and PPARγ [4] |
| --- | --- | --- | --- | --- | --- | --- |
| O=C(O)[C@@H]1CSC(c2ccc(O)c(O)c2)N1 (mixture of isomers) [Compound 2, (2R/S,4R)-2-(3,4-dihydroxyphenyl)thiazolidine-4-carboxylic acid] | 195.5 to 196.8 | as high scavenging effects on ROS generated by vascular endothelial cells as trolox | – | – | – | – |
| O=C(O)[C@@H]1CSC(c2ccc(O)cc2O)N1 (mixture of isomers) [Compound 3, (2R/S,4R)-2-(2,4-dihydroxyphenyl)thiazolidine-4-carboxylic acid] | – | – | better tyrosinase inhibitory activities than a kojic acid | – | – | – |
| COc1ccc(C2N[C@H](C(=O)O)CS2)c(OC)c1 (mixture of isomers) [Compound 9, (2R/S,4R)-2-(2,4-dimethoxyphenyl)thiazolidine-4-carboxylic acid] | 137.7 to 139.2 | – | better tyrosinase inhibitory activities than a kojic acid | – | – | – |
| COC(=O)[C@@H]1CSC(c2ccc(O)c(O)c2)N1 (mixture of isomers) [Compound 104, (2R/S,4R)-methyl 2-(3,4-dihydroxyphenyl)thiazolidine-4-carboxylate] | 116 to 118 | as high scavenging effects on ROS generated by vascular endothelial cells as trolox | – | – | – | – |
| Oc1ccc(-c2nc3ccccc3s2)cc1 [Compound 13, 4-(benzo[d]thiazol-2-yl)phenol] | – | – | better tyrosinase inhibitory activities than a kojic acid | very excellent PPARγ activation agent compared to rosiglitazone | very excellent PPARα activation agent compared to fenofibrate | simultaneously activates PPARα and PPARγ |
| Oc1ccc(-c2nc3ccccc3s2)cc1O [Compound 14, 4-(benzo[d]thiazol-2-yl)benzene-1,2-diol] | – | as high scavenging effects on ROS generated by vascular endothelial cells as trolox | – | – | – | – |
| Oc1ccc(-c2nc3ccccc3s2)c(O)c1 [Compound 15, 4-(benzo[d]thiazol-2-yl)benzene-1,3-diol] | – | – | better tyrosinase inhibitory activities than a kojic acid | – | – | – |
| Oc1ccc(-c2nc3cc(C(F)(F)F)ccc3s2)cc1O [Compound 29, 4-(5-(trifluoromethyl)benzo[d]thiazol-2-yl)benzene-1,2-diol] | 267.3 to 269.4 | as high scavenging effects on ROS generated by vascular endothelial cells as trolox | – | – | – | – |
| Oc1ccc(-c2nc3cc(C(F)(F)F)ccc3s2)c(O)c1 [Compound 30, 4-(5-(trifluoromethyl)benzo[d]thiazol-2-yl)benzene-1,3-diol] | 236.2 to 238.2 | – | better tyrosinase inhibitory activities than a kojic acid | – | – | – |
| Oc1ccc(-c2nc3ccccc3[nH]2)cc1O [Compound 44, 4-(1H-benzo[d]imidazol-2-yl)benzene-1,2-diol] | 268.5 to 269.8 | as high scavenging effects on ROS generated by vascular endothelial cells as trolox | – | very excellent PPARγ activation agent compared to rosiglitazone | very excellent PPARα activation agent compared to fenofibrate | simultaneously activates PPARα and PPARγ |
| Oc1ccc(C2NCCS2)cc1O (centres unmarked) [Compound 72, 4-(Thiazolidin-2-yl)benzene-1,2-diol] | – | as high scavenging effects on ROS generated by vascular endothelial cells as trolox | – | – | – | – |
| COc1cc(C2NCCS2)cc(OC)c1O (centres unmarked) [Compound 80, 2,6-dimethoxy-4-(thiazolidin-2-yl)phenol] | – | as high scavenging effects on ROS generated by vascular endothelial cells as trolox | – | – | – | – |
| Oc1ccc(-c2nc3cc(Cl)ccc3s2)cc1 [Compound 82, 4-(5-chlorobenzo[d]thiazol-2-yl)phenol] | 259.3 to 263.1 | – | better tyrosinase inhibitory activities than a kojic acid | – | – | – |
| CCOc1cc(-c2nc3cc(Cl)ccc3s2)ccc1O [Compound 86, 4-(5-chlorobenzo[d]thiazol-2-yl)-2-ethoxyphenol] | 102.1 to 103.4 | – | – | very excellent PPARγ activation agent compared to rosiglitazone | very excellent PPARα activation agent compared to fenofibrate | simultaneously activates PPARα and PPARγ |
| Oc1ccc(-c2nc3cc(Cl)ccc3s2)cc1Br [Compound 95, 2-bromo-4-(5-chlorobenzo[d]thiazol-2-yl)phenol] | 226 to 228.1 | – | – | very excellent PPARγ activation agent compared to rosiglitazone | very excellent PPARα activation agent compared to fenofibrate | simultaneously activates PPARα and PPARγ |
| CC(C)(C)[Si](C)(C)Oc1ccc2c(-c3ccccc3)cc(=O)oc2c1O[Si](C)(C)C(C)(C)C [Compound 100, 7,8-bis(tert-butyldimethylsilyloxy)-4-phenyl-2H-chromen-2-one] | – | as high scavenging effects on ROS generated by vascular endothelial cells as trolox | – | – | – | – |
| O=C(O)c1csc(-c2ccc(O)cc2O)n1 [Compound 101, 2-(2,4-Dihydroxyphenyl)thiazole-4-carboxylic acid] | – | – | better tyrosinase inhibitory activities than a kojic acid | – | – | – |
| O=C(O)[C@@H]1CSC(c2ccc(O)c(O)c2)=N1 [Compound 102, (4R)-2-(3,4-dihydroxyphenyl)-4,5-dihydrothiazole-4-carboxylic acid] | 178 to 179 | as high scavenging effects on ROS generated by vascular endothelial cells as trolox | – | – | – | – |
| COC(=O)c1csc(-c2ccc(OC(C)=O)c(OC(C)=O)c2)n1 [Compound 103, 4-(4-(Methoxycarbonyl)thiazol-2-yl)-1,2-phenylene diacetate] | 137 to 138 | as high scavenging effects on ROS generated by vascular endothelial cells as trolox | – | – | – | – |
| Oc1ccc(C2Nc3cc(C(F)(F)F)ccc3S2)cc1Br (centres unmarked) [Compound 119, 2-bromo-4-(5-(trifluoromethyl)-2,3-dihydrobenzo[d]thiazol-2-yl)phenol] | – | as high scavenging effects on ROS generated by vascular endothelial cells as trolox | – | very excellent PPARγ activation agent compared to rosiglitazone | very excellent PPARα activation agent compared to fenofibrate | simultaneously activates PPARα and PPARγ |
